Patent publication US20120251628A1, “COMPOSITIONS AND METHODS FOR TREATMENT OF CANCER” (priority 2011, published 2012)

Legend:
[1] = test system: CT26 colon carcinoma cells; assay: Anti-tumor effect in mice bearing subcutaneous CT26 tumors, alone or with irinotecan; type: in vivo
Description: Female BALBc mice bearing subcutaneous CT26 colon carcinoma cells were injected intraperitoneally with sodium meta arsenite (10/mg/kg body weight) or irinotecan alone, or co-administered weekly for four weeks.

microtubules = assay: Immunohistochemistry of microtubules in HUVECs (confocal microscopy); type: cell-based, Human; conditions: 1 uM, 5 uM and 10 uM, 24 and 48 hours, concentration dependent
Description: HUVECs were cultured in a confocal dish (made by SPL, Korea) with F-12K (Sigma) medium containing 10% FBS and endothelial cell growth supplement (ECGS, E2759, Sigma). After cultivation for 24 hours, the cells were treated with sodium meta arsenite at a concentration of 1 uM, 5 uM and 10 uM. At 24 hours and 48 hours after treatment, the cells were fixed with 3.7% paraformaldehyde at room temperature for 10 minutes. After washing with phosphate buffered saline (PBS) solution three times, the cells were treated with 0.15% Triton X-100 for 15 minutes and then washed three times with PBS solution. After blocking with 2% bovine serum albumin (BSA, Sigma) at room temperature for 60 minutes, the cells were washed three times with PBS solution. Monoclonal antibody against α-tubulin (SantaCruze, sc-32293) was reacted with the cells at room temperature for one hour and then the cells were washed three times with the PBS solution. The cells were then reacted with rat anti-mouse IgG1 secondary antibody (Pharmigen, #A85-1) conjugated to FITC. After being washed three times with PBS solution, they were analyzed using a confocal laser scanning microscope (OLYMPUS FV500,1×81).

[2] = test system: CT26 colon carcinoma cell line; assay: Histologic analysis (hematoxylin and eosin) of tumor tissues; type: in vivo, mice; conditions: 10 mg/kg intraperitoneal; 8, 24 and 48 hours after injection; with increasing exposure time; from the central part of the tumors
Description: Seven-week-old, female, specific-pathogen-free (BALB/c) white mice (weight: approximately 20 g) purchased from ORIENTBIO Inc. (Seoul Korea) were subcutaneously injected with 2×10^6 cells of the CT26 colon carcinoma cell line per mouse. When the tumor size reached 3 mm in diameter, the control group was injected with a phosphate buffered saline (PBS) solution with 5% dextrose while the experimental group was intraperitoneally injected with 100 μL of KML001 at a concentration of 10 mg/kg with 5% dextrose. At 8, 24 and 48 hours after injection, liver, spleen and tumor tissue samples were taken and placed into a 37% solution of formaldehyde for 24 hours. The tissues were inserted into paraffin and sectioned at 4 μm on a microtome (made by SLEE MAINZ GmbH in Germany) and the sections were placed on slides.

HUVECs = assay: Cytotoxicity test of HUVECs (CellTiter 96 Aqueous One Solution); type: cell-based, Human
Description: To determine the effect, if any, of sodium meta arsenite on vascularization, the effect on endothelial cells (which are essential for vascularization) was first analyzed. Human umbilical cord vein endothelial cells (HUVECs offered by ATCC) were cultivated in 96-well microculture plates containing F-12K (Sigma) medium supplemented with 10% FBS and endothelial cell growth supplement (ECGS, E2759, Sigma). For the cytotoxicity test of the cells after 24 hour cultivation, the cells were treated with KML001 at the concentration of 0.1 nM, 1 nM, 10 nM, 1 uM, 10 uM and 100 uM. At 24 hours and 48 hours after treatment, 20 μl/well of CellTiter 96® Aqueous One Solution (by Promega) Reagent was added on each well and reacted for one hour at 37° C. The reacted 96-well plates were measured at 490 nm using a spectrophotometer (UVStar, Greiner Bio-One). To analyze apoptosis of HUVECs, the cells were cultivated on F25 flasks using the same method as discussed above and then the cells were treated with sodium meta arsenite at a concentration of 10 uM, 20 uM and 50 uM. Cells were collected after 24 and 48 hours. The collected cells were stained for 30 minutes with Annexin-V for FACS analysis. After two washes, the cells were analyzed by using flow cytometry (FACSCALIBUR, BECTON DICLINSON).

[3] = test system: CT26 (mouse colon cancer); assay: DCE-MRI of tumor vascularity (Kep) in CT26 tumor mice; type: in vivo
Description: To determine whether the occurrence of central necrosis of tumors 24 hours after treatment was caused by the reduction of vascularity, DCE-MRI was used before the medication was administered and 24 hours after administration.
Inoculate CT26 (mouse colon cancer) 2×10^6 cell subcutaneously into mice on the upper parts of their thighs.
After checking the tumor size between 6 to 10 mm, acquire images through MRI.
Image Acquisition: Use a magnetic resonance imaging device (i.e., 3 Tesla Intera human clinical scanner; Philips medical systems) and a mouse coil with an inner diameter of 4 cm to get images. Acquire images before the drug is administered and those 24 hours after that for two days.
MR Pulse Sequence as follows: Dynamic Contrast enhanced MRI scan: FOV (mm)=50×35; RFOV (%)=71; Matrix scan=112; reconstruction=224; TR/TE (ms)=12/4.0; slice thickness=1 mm; slice number=11; dynamic scans=60.
i. Conduct an experiment to the subjects under anesthesia by using an inhalation anesthetic mixing 1.5% isoflurane in 100% oxygen at a flow rate of 1 L/min.
ii. Cannulate an intravenous injection line through the tail vein to inject a contrast agent.
iii. Use Gd-DTPA (Magnevist, Schering, Germany, 281 mg/kg) as a contrast agent and get pre-contrast images before injecting the contrast agent and post-contrast images after injecting it.
iv. After getting the images, inject KML001 (10 mg/kg) and Arsenic trioxide (7.5 mg/kg) intraperitoneally.
v. Get images through a dynamic scan again 24 hours after injection.
Accordingly, the groups of animals with which the DCE-MRI data was obtained are as follows: Group of animals treated with ATO: n=4, Group of animals treated with Saline: n=4 and Group of animals treated with KML001: n=6.
As the low data in MRI was mapped from each result of the DCE-MRI to the positive control group of animals treated with ATO, the negative control group of animals treated with saline and the experimental group of animals treated with KML001, Kep values important for tumor vascularity were calculated. Kep (rate constant) is the back diffusion rate constant from interstitial space to vascular space, reflecting leakage of tumor vessels, i.e., a measurement of vascularity.

With `O=[As][O-].[Na+]` [sodium meta arsenite] the tumor growth delay ([1]; sodium meta arsenite administered 24 hours or 72 hours after irinotecan, weekly for four weeks) was “Significant tumor growth delay”, the tumor regrowth ([1]; sodium meta arsenite alone, 10 mg/kg intraperitoneal) was “regrowth was observed from the periphery after two days” and the “necrosis of the tumor” value ([1]; sodium meta arsenite alone, 10 mg/kg intraperitoneal, by 24 hours after treatment) was “Massive necrosis in the central part of the tumor”. The “total amount of microtubules” value (microtubules) was “reduction in the total amount of microtubules”, the “scope of necrotic cell death in the tumor tissues” value [2] was “observed to increase” and the “concentration at which cytotoxicity was observed” value (HUVECs; 24 and 48 hours after treatment, tested 0.1 nM to 100 uM) was 10 µM. For the same molecule, the cytotoxicity over time (HUVECs; 24 hours vs 48 hours) was “significantly increased over time”, the “Kep values (back diffusion rate constant, tumor vascularity)” value ([3]; 24 hours after intraperitoneal injection vs pre-treatment, KML001 10 mg/kg, ATO 7.5 mg/kg) was “significantly reduced” and the “contrast enhancement of the tumors in the MRI” value ([3]; 24 hours after treatment) was “decreased”.
